According to ChEMBL document CHEMBL5120938, “Development of BET Inhibitors as Potential Treatments for Cancer: Optimization of Pharmacokinetic Properties” (ACS Med Chem Lett, 2022):
Each block holds one compound with its values, some of them ahead of it.

Experiments:
[1] = target: Bromodomain-containing protein 4 (Homo sapiens, UniProt O60885); experiment: Inhibition of N-terminal His6-tagged recombinant human BRD4 (44 to 168 residues) expressed in Escherichia coli BL21 (DE3) incubated for 60 mins by TR-FRET assay
[2] = Inhibition of c-MYC expression in human JJN-3R cells measured after 4 hrs; format: functional, cell-based
[3] = Antiproliferative activity against human JJN-3R cells assessed as inhibition of cell proliferation measured after 72 hrs by MTS assay; format: functional, cell-based
[4] = Metabolic stability in alamethicin treated human liver microsomes assessed as half life pretreated for 5 mins followed by NADPH addition and measured up to 45 mins by LC-MS/MS analysis; format: ADME, Microsome; conditions: time < 50 min
[5] = Metabolic stability in alamethicin treated Sprague-Dawley rat liver microsomes assessed as half life pretreated for 5 mins followed by NADPH addition and measured up to 45 mins by LC-MS/MS analysis; format: ADME, Microsome; conditions: time < 50 min
[6] = Metabolic stability in alamethicin treated CD-1 mouse liver microsomes assessed as half life pretreated for 5 mins followed by NADPH addition and measured up to 45 mins by LC-MS/MS analysis; format: ADME, Microsome; conditions: time < 50 min
[7] = Metabolic stability in alamethicin treated Beagle dog liver microsomes assessed as half life pretreated for 5 mins followed by NADPH addition and measured up to 45 mins by LC-MS/MS analysis; format: ADME, Canis lupus familiaris, Microsome; conditions: time < 50 min
[8] = Metabolic stability in alamethicin treated cynomologus monkey liver microsomes assessed as half life pretreated for 5 mins followed by NADPH addition and measured up to 45 mins by LC-MS/MS analysis; format: ADME, Macaca fascicularis, Microsome; conditions: cynomolgus monkey, time < 50 min
[9] = Metabolic stability in alamethicin treated human liver microsomes assessed as half life pretreated for 5 mins followed by UDPGA addition and measured up to 45 mins by LC-MS/MS analysis; format: ADME, Microsome; conditions: time < 50 min
[10] = Metabolic stability in alamethicin treated Sprague-Dawley rat liver microsomes assessed as half life pretreated for 5 mins followed by UDPGA addition and measured up to 45 mins by LC-MS/MS analysis; format: ADME, Microsome; conditions: time < 50 min
[11] = Metabolic stability in alamethicin treated CD-1 mouse liver microsomes assessed as half life pretreated for 5 mins followed by UDPGA addition and measured up to 45 mins by LC-MS/MS analysis; format: ADME, Microsome; conditions: time < 50 min
[12] = Metabolic stability in alamethicin treated Beagle dog liver microsomes assessed as half life pretreated for 5 mins followed by UDPGA addition and measured up to 45 mins by LC-MS/MS analysis; format: ADME, Canis lupus familiaris, Microsome; conditions: for half-life: Beagle, liver microsomes, time < 50 min
[13] = Metabolic stability in alamethicin treated cynomologus monkey liver microsomes assessed as half life pretreated for 5 mins followed by UDPGA addition and measured up to 45 mins by LC-MS/MS analysis; format: ADME, Macaca fascicularis, Microsome; conditions: cynomolgus monkey, time < 50 min
[14] = Efflux ratio of apparent permeability across […] in human Caco-2 cells after 2 hrs by liquid scintillation counting analysis; format: ADME, cell-based; conditions: caco-2, 2 h
[15] = Volume of distribution in mouse at 3 mg/kg, po or 1 mg/kg, iv; format: ADME, organism-based; conditions: in vivo
[16] = Half life in mouse at 1 mg/kg, iv; format: ADME, organism-based; conditions: in vivo
[17] = Oral bioavailability in mouse at 3 mg/kg; format: ADME, organism-based; conditions: in vivo
[18] = AUC in mouse at 3 mg/kg, po; format: ADME, organism-based; design: dose 3 mg/kg, route po; conditions: in vivo
[19] = Volume of distribution in rat at 5 mg/kg, po or 1 mg/kg, iv; format: ADME, organism-based; conditions: in vivo
[20] = Half life in rat at 1 mg/kg, iv; format: ADME, organism-based; conditions: in vivo
[21] = Oral bioavailability in rat at 5 mg/kg; format: ADME, organism-based; conditions: in vivo
[22] = AUC in rat at 5 mg/kg, po; format: ADME, organism-based; design: dose 5 mg/kg, route po; conditions: in vivo
[23] = Volume of distribution in dog at 0.3 mg/kg, po or 0.1 mg/kg, iv; format: ADME, organism-based, Canis lupus familiaris; conditions: in vivo
[24] = Half life in dog at 0.1 mg/kg, iv; format: ADME, organism-based, Canis lupus familiaris; conditions: in vivo
[25] = Oral bioavailability in dog at 0.3 mg/kg; format: ADME, organism-based, Canis lupus familiaris; conditions: in vivo
[26] = AUC in dog at 0.3 mg/kg, po; format: ADME, organism-based, Canis lupus familiaris; design: dose 0.3 mg/kg, route po; conditions: in vivo
[27] = Volume of distribution in cynomologus monkey at 0.3 mg/kg, po or 0.1 mg/kg, iv; format: ADME, organism-based, Macaca fascicularis; conditions: cynomolgus monkey, in vivo
[28] = Half life in cynomologus monkey at 0.1 mg/kg, iv; format: ADME, organism-based, Macaca fascicularis; conditions: cynomolgus monkey, in vivo
[29] = Oral bioavailability in cynomologus monkey at 0.3 mg/kg; format: ADME, organism-based, Macaca fascicularis; conditions: cynomolgus monkey, in vivo
[30] = AUC in cynomologus monkey at 0.3 mg/kg, po; format: ADME, organism-based, Macaca fascicularis; design: dose 0.3 mg/kg, route po; conditions: cynomolgus monkey, in vivo
[31] = Antitumor activity against human BR1077F cells xenografted in mouse assessed as tumor growth inhibition at 2 mg/kg, po QD treated as 5 days on and 2 days off regimen for 2 weeks starting from 26 days post tumor implantation; format: functional; conditions: 336 h, read-out: TGI
[32] = AUC in mouse xenografted with human BR1077F cells at 2 mg/kg, po QD treated as 5 days on and 2 days off regimen for 2 weeks starting from 26 days post tumor implantation; format: ADME, organism-based; design: time 2 weeks, dose 2 mg/kg, route po; conditions: in vivo
[33] = target: Bromodomain-containing protein 2 (Homo sapiens, UniProt P25440); experiment: Inhibition of BRD2 (unknown origin)
Chain of Bromodomain-containing protein 2 (P25440 whole entry): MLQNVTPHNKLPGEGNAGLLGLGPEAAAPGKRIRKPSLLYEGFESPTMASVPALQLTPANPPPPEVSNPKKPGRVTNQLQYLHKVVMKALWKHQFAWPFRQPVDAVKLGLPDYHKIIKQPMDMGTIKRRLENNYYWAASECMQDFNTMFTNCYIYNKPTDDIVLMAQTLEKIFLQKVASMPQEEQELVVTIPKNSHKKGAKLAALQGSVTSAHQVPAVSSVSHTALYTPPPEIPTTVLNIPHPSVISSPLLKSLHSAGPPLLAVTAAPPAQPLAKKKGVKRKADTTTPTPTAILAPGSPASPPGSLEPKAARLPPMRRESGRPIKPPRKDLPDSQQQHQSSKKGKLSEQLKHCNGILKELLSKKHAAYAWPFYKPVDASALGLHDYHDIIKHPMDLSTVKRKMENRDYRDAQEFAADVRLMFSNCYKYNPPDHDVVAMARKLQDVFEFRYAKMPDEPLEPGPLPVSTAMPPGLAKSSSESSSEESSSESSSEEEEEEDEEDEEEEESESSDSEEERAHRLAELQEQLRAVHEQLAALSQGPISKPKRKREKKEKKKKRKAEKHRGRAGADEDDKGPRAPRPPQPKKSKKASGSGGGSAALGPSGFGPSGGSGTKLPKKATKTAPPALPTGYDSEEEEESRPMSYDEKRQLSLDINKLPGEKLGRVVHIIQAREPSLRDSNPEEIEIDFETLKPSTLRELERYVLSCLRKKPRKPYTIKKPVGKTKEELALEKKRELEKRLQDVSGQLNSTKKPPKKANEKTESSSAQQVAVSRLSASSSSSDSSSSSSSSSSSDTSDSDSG

[34] = target: Bromodomain-containing protein 3 (Homo sapiens, UniProt Q15059); experiment: Inhibition of BRD3 (unknown origin)
Chain of Bromodomain-containing protein 3 (Q15059 whole entry): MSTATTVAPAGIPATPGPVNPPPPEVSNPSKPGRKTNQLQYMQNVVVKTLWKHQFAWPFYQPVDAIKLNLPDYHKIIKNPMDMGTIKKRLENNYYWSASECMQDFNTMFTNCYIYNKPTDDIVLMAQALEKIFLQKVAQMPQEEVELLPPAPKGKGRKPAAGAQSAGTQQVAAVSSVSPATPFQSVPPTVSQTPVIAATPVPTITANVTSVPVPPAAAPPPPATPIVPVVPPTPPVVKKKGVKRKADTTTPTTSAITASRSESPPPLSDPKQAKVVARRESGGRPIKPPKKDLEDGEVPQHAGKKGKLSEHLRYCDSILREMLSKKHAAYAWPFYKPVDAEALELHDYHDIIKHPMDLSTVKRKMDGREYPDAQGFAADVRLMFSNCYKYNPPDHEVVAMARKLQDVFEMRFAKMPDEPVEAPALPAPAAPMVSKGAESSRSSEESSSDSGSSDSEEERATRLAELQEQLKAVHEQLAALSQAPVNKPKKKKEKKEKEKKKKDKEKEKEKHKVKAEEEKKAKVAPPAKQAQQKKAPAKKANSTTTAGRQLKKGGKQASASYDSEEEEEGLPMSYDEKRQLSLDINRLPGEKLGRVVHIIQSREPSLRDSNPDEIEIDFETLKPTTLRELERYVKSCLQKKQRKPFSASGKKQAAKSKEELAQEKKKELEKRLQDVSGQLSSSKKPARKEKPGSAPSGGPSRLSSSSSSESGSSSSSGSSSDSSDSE

[35] = Drug metabolism in human hepatocytes assessed as glucuronides formation at 5 uM measured after 2 hrs by LC/UV/MS analysis; format: ADME, cell-based, Hepatocyte

IC50 [1]: 1 nM | IC50 [2]: 1.5 nM | half-life [4]: 67 min | half-life [5]: 38 min | half-life [6]: 42 min | half-life [7]: 69 min | half-life [8]: 29 min | half-life [9]: 120 min | half-life [10]: 6 min | half-life [11]: 120 min | half-life [12]: 120 min | half-life [13]: 120 min | Ratio [14]: 1.4
Compound: [2H]C([2H])([2H])c1nnn(C)c1-c1cnc2c3ccc(C(C)(C)O)c(F)c3n([C@H](c3ccccc3)C3CCOCC3)c2c1
IC50 [3]: 5 nM

IC50 [2]: 2 nM | half-life [4]: 52 min | half-life [5]: 46 min | half-life [6]: 41 min | half-life [7]: 32 min | half-life [8]: 10 min | half-life [9]: 120 min | half-life [10]: 120 min | half-life [11]: 120 min | t1/2 ([12]; microsomes, 50 min): 120 min | half-life [13]: 120 min | Ratio [14]: 1.8 | Vd [15]: 1.4 L/kg | half-life [16]: 204 min | bioavailability [17]: 100% | AUC [18]: 25 µM·h | Vd [19]: 2.9 L/kg | half-life [20]: 246 min | bioavailability [21]: 74% | AUC [22]: 6.6 µM·h | Vd [23]: 5.8 L/kg | half-life [24]: 456 min | bioavailability [25]: 73% | AUC [26]: 0.55 µM·h | Vd [27]: 1.3 L/kg | half-life [28]: 240 min | bioavailability [29]: 85% | AUC [30]: 1.9 µM·h | AUC at 336 h [32]: 4.8 µM·h | IC50 [33]: 0.2 nM | IC50 [34]: 1.6 nM | Drug metabolism [35]: Metabolite_Notdetected
Compound: [2H]C([2H])([2H])c1nnn(C)c1-c1cnc2c3cc(F)c(C(C)(C)O)cc3n([C@H](c3ccccc3)C3CCOCC3)c2c1
IC50 [3]: 6 nM | inhibition in vivo at 2 mg/kg [31]: 88%

IC50 [1]: 8 nM | IC50 [2]: 4.5 nM | half-life [4]: 63 min | half-life [5]: 62 min | half-life [6]: 48 min | half-life [7]: 40 min | half-life [8]: 32 min | half-life [9]: 120 min | half-life [10]: 120 min | half-life [11]: 120 min | half-life [12]: 120 min | half-life [13]: 120 min | Ratio [14]: 9.7
Compound: [2H]C([2H])([2H])c1nnn(C)c1-c1cnc2c3c(F)cc(C(C)(C)O)cc3n([C@H](c3ccccc3)C3CCOCC3)c2c1
IC50 [3]: 10 nM

IC50 [1]: 4 nM | IC50 [2]: 9 nM
Compound: Cc1nnn(C)c1-c1cnc2c3ccc(C(C)C)cc3n([C@H](c3ccccc3)C3CCOCC3)c2c1
IC50 [3]: 39 nM

IC50 [1]: 1.7 nM | IC50 [2]: 2 nM | half-life [4]: 75 min | half-life [5]: 47 min | half-life [6]: 22 min | half-life [7]: 34 min | half-life [8]: 40 min | Ratio [14]: 4.5
Compound: [2H]C([2H])([2H])c1nnn(C)c1-c1cnc2c3ccc(S(C)(=O)=O)cc3n([C@H](c3ccccc3)C3CCOCC3)c2c1
IC50 [3]: 13 nM

IC50 [1]: 1.2 nM | IC50 [2]: 0.8 nM | half-life [4]: 59 min | half-life [5]: 43 min | half-life [6]: 25 min | half-life [7]: 37 min | half-life [8]: 29 min | Ratio [14]: 6.1
Compound: [2H]C([2H])([2H])c1nnn(C)c1-c1cnc2c3ccc(C(C)(C)O)cc3n([C@H](c3ccccc3)C3CCOCC3)c2c1
IC50 [3]: 6 nM

IC50 [1]: 1.4 nM | IC50 [2]: 3 nM | half-life [4]: 3 min | half-life [5]: 18 min | half-life [6]: 7 min
Compound: COC(C)(C)c1ccc2c3ncc(-c4c(C)nnn4C)cc3n([C@H](c3ccccc3)C3CCOCC3)c2c1
IC50 [3]: 7 nM
